Measured values taken from patent US4489090A, “Dibenzocycloalkanamido and dibenzothioxanthenyl benzoic acids” (American Cyanamid Company, priority 1983, dated 1984).

Target: T1, fatty acyl CoA:cholesterol acyl transferase (ACAT) (Rattus norvegicus, UniProt O70536)
T1 construct: The supernatant, containing the microsomal fraction, served as the source of the cholesterol-esterifying enzyme; from tissue; host or cells: rat adrenals, homogenate supernatant (1,000 x g) containing the microsomal fraction
T1 sequence (O70536 1-545): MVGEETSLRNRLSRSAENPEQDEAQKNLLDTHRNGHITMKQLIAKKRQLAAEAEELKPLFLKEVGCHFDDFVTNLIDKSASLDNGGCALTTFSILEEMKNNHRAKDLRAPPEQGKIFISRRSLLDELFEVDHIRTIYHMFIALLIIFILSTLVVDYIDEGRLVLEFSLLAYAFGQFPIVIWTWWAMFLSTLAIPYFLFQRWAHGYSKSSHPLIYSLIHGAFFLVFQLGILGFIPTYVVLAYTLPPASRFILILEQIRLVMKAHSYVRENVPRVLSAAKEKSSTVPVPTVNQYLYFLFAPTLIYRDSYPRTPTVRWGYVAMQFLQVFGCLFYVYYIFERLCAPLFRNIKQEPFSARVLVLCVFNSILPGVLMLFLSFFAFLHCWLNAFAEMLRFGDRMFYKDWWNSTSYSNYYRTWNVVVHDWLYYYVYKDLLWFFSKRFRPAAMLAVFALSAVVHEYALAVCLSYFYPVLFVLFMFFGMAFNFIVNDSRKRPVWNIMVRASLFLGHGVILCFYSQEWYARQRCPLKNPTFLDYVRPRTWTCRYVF
Assay: Inhibition of enzymatic esterification of cholesterol (ACAT) in rat adrenal supernatant containing the microsomal fraction
Assay type: biochemical
Details: final concentration of test compound 5.2 μg./ml., 14C-oleoyl CoA, 37° C., read-out: % INHIBITION (percent inhibition of the ACAT enzyme as compared to control values)
Description: The compounds of the present invention were tested for their ability to inhibit the enzymatic esterification of cholesterol according to the following procedure:
Rat adrenals were homogenized in 0.2M monobasic potassium phosphate buffer, pH 7.4, and centrifuged at 1,000 times gravity for 15 minutes at 5° C. The supernatant, containing the microsomal fraction, served as the source of the cholesterol-esterifying enzyme, fatty acyl CoA:cholesterol acyl transferase (ACAT). A mixture comprising 50 parts of adrenal supernatant, 10 parts of albumin (BSA) (50 mg./ml.), 20 parts of oleoyl CoA (^14 C-0.4 μCi), 3 parts of test compound, and 500 parts of buffer was pre-incubated at 37° C. for 10 minutes. After treatment with 20 parts of oleoyl CoA (^14 C-0.4 μCi), the mixture was incubated at 37° C. for 10 minutes. A control mixture, omitting the test compound, was prepared and treated in the same manner. The lipids from the incubation mixture were extracted into an organic solvent and separated by thin-layer chromatography. The cholesterol ester fraction was counted in a scintillation counter. This procedure is a modification of that described by Hashimoto, et al., Life Scie., 12 (Part II), 1-12 (1973).
The results of this test on representative compounds of this invention appear in Table I. The final concentration of the test compound was 5.2 μg./ml., and effectiveness of the compound is expressed as percent inhibition of the ACAT enzyme as compared to control values.

Row | inhibition at 5.2 µg/mL [%] | SMILES
1 | 47 | O=C(C=C1c2ccccc2C=Cc2ccccc21)Nc1ccc(C(=O)O)cc1 [4-(5H-Dibenzo[a,d]cycloheptene-Δ^5,α -acetamido) benzoic acid]
2 | 20 | CCOC(=O)c1ccc(NC(=O)C=C2c3ccccc3C=Cc3ccccc32)cc1 [Ethyl 4-(5H-dibenzo[a,d]cycloheptene-Δ^5,α -acetamido) benzoate]
3 | 9 | CCOC(=O)c1ccc(NC(=O)CC2c3ccccc3Sc3ccccc32)cc1 [Ethyl 4-[(9-thioxanthenyl)acetamido]benzoate]
4 | 51 | O=C(C=C1c2ccccc2CCc2ccccc21)Nc1ccc(C(=O)O)cc1 [p-(10,11-Dihydro-5H-dibenzo[a,d]cycloheptene-Δ^5,α -acetamido)benzoic acid]
5 | 37 | O=C(CC1c2ccccc2Sc2ccccc21)Nc1ccc(C(=O)O)cc1 [4-[Thioxanthene-9-acetamido]benzoic acid, 4-[(9-Thioxanthenyl)acetamido]benzoic acid]
